Patent US9932479B2, “Dyes and compositions, and processes for using same in analysis of protein aggregation and other applications” (Enzo Biochem, Inc., priority 2009, dated 2018)

Key:
[1] = system: goat-anti-mouse IgG aggregate; assay: Fluorescence enhancement (aggregate/native IgG) in the presence of excipients; assay type: binding; details: for Fluorescence enhancement (aggregate/native IgG): 2.8 μM IgG, 0.625 μM dye; for Fluorescence enhancement (aggregate/native IgG), Average: Average over all excipient conditions
Protocol: IgG aggregate was prepared by adjusting 5.83 mg/ml of purified goat-anti-mouse IgG (H&L, Pel Freez, Rogers, Ark.) to pH 2.7 using HCl and incubating at 22° C. for 24 hours. The assay was performed using 2.8 μM IgG, either native or aggregated, and a dye concentration of 0.625 μM. The protein and dye were mixed together for 15 minutes at 22° C., then this was further incubated in the presence of the excipients shown in the table. The fluorescence intensity of S-25, Tol3 and Y2150 were determined with a FLUOstar OPTIMA plate reader (BMG LABTECH) at excitation wavelength of 550 nm and emission wavelength of 610 nm; while the fluorescence intensity for Thioflavin-T was determined using a SpectraMAX GeminiXS (Molecular device, with Softmax Pro 7.0) using an excitation wavelength of 435 nm and emission wavelength of 495 nm. The fluorescence enhancement (aggregate/native IgG) is shown.

β-lactoglobulin (BLG) = target: T1, β-lactoglobulin (BLG) (Bos taurus, UniProt P02754); assay: Thermal shift assay of BLG aggregation; assay type: binding; details: BLG 4 or 16 mg/mL, heating 28° C. to 90° C.
T1 sequence (P02754 17-178): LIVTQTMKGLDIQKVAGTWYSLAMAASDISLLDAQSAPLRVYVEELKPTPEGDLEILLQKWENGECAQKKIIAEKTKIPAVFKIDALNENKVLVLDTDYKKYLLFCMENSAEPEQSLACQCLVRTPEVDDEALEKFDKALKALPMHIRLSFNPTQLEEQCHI
Protocol: A solution containing 4 or 16 mg/mL of β-lactoglobulin (BLG) and 2×SYPRO® Orange dye (Molecular Probes, supplied as 5000× with unknown concentration) or 4 μM TOL3 or 4 μM S25 was prepared using 1×PBS, pH 7.4 as the dilution buffer. This solution was then loaded into LightCycler® capillaries (20 μL, Roche Diagnostics GmbH). These capillaries were then mounted on the sample holder of a LightCycler® 480 Real-Time PCR System (Roche), programmed to heat from 28° C. to 90° C. at 3° C./min, followed by cooling down to 28° C. at the same rate. The thermal shift curves were achieved by plotting fluorescence intensity vs. temperature. After the heating cycle, protein aggregates were visually apparent.

[2] = Fluorescence excitation and emission spectra of dye freely dissolved in buffer; assay type: physicochemical; details: 50 mM Tris-HCl, pH 7.8, 10 μM dye, room temperature
Protocol: (§1) Fluorescent readings were carried out in 50 mM Tris-HCl, pH 7.8 using 10 μM dye. […] Fluorescence excitation and emission spectra were collected on a Cary Eclipse fluorescence spectrophotometer (Varian, Australia). Fluorescence spectra were measured with excitation and emission slit widths set to 5 nm, and at a constant PMT voltage. Spectroscopic measurements were performed in standard quartz cells. All measurements were made at the respective excitation maxima of each dye. All measurements were carried out at room temperature.

[3] = target: T2, recombinant human alpha-synuclein (ASN) aggregate (Homo sapiens, UniProt P37840); assay: Fluorescence excitation and emission spectra of dye in the presence of aggregated alpha-synuclein; assay type: binding; details: 1 μM aggregated ASN, 50 mM Tris-HCl, pH 7.8, 10 μM dye
T2 construct: purchased Sigma-Aldrich
Protocol: as §1

Rabbit-anti-goat IgG [4] = assay: Fluorescence response to unfolded versus aggregated IgG in 4.55 M urea; assay type: binding; details: 6.67 μM Tol3
Protocol: (B) A solution containing aggregated IgG (formed as in Example 13 (B)) or monomeric IgG at 0.033 mg/mL, 4.55 M urea and 6.67 μM Tol3 was prepared and transferred into a microplate. After incubating at 4° C. degree for about 10 minutes, the fluorescence was recorded. Two control solutions without IgG, but with the same concentration of TOl3, were included, one including 4.55M urea, another without urea. From the previous chemical shift curve generated (seen in FIG. 16 (A)), 4.55 M urea is known to unfold approximately 60% of the IgG.

Rabbit-anti-goat IgG [5] = assay: Chemical shift assay based on internal tryptophan fluorescence; assay type: biochemical; details: 4.55 M urea; from chemical shift curve FIG. 16 (A)
Protocol: (A) Chemical shift assay based on internal tryptophan fluorescence: Rabbit-anti-goat IgG (Pel Freeze) in 1×PBS buffer of pH 7.4 was mixed with urea in 1×PBS to achieve a final IgG concentration of 0.25 mg/mL. After mixing on ice for 10 minutes, the fluorescence emission intensity at 330 nm was recorded by exciting at 280 nm using a MD-5020 fluorimeter (Phototechnology International). A chemical shift curve was plotted based on internal tryptophan fluorescence intensity at each given urea concentration. Urea denatures proteins but prevents them from aggregating.

Hen Egg White Lysozyme = target: T3, Hen Egg White Lysozyme (Gallus gallus, UniProt P00698); assay: Inhibition of Lysozyme aggregation at pH 12.2, S-25/Tol3 readout; assay type: biochemical; details: 510 μM Chitotriose, 300 μM Lysozyme, aggregation induced at pH 12.2
T3 construct: Hen egg white lysozyme was solubilized in 10 mM HCl; from tissue; host or cells: hen egg white
Protocol: Hen egg white Lysozyme (300 μM) was incubated with or without N,N′,N″-triacetyl-chitotriose (Chitotriose, 510 μM) in 10 mM potassium phosphate, pH 7.3 for 16 hours. Aggregation was induced by 3.5 fold dilution into 50 mM potassium phosphate, pH 12.2. Aggregation was followed by removing an aliquot of the protein and diluting such that the final composition was 20 μM protein, 50 mM potassium phosphate, pH 7, 3 μM S-25 and 3 μM Tol3. Protein was incubated with dye for 15 minutes prior to determining the fluorescence using a BioTek Synergy Mx plate scanner, with excitation setting at 515 nm and emission setting at 603 nm, both with a 9 nm slit-width. The zero time point was taken before dilution to pH 12.2. Readings were taken in at least triplicate in a Greiner μClear black, clear bottom 96-well microplate. Aggregation was followed for several weeks at room temperature (19°-23° C.).

T3 sequence (P00698 19-147): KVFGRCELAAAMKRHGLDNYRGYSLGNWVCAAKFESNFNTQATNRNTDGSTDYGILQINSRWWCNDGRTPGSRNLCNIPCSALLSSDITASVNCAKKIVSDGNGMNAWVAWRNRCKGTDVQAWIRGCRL

## CN(C)c1ccc(/C=C/c2cc[n+](CCCCCC[n+]3ccc(/C=C/c4ccc(N(C)C)cc4)cc3)cc2)cc1.CS(=O)(=O)[O-].CS(=O)(=O)[O-] [Dye S25]
[1]; Ammonium Sulfate, 10 mM
  Fluorescence enhancement (aggregate/native IgG): 15.4 fold
[1]; Ammonium Sulfate, 100 mM
  Fluorescence enhancement (aggregate/native IgG): 14.6 fold
[1]; Ammonium Sulfate, 300 mM
  Fluorescence enhancement (aggregate/native IgG): 13.3 fold
[1]; Arginine, 200 mM
  Fluorescence enhancement (aggregate/native IgG): 14.8 fold
[1]; Arginine, 500 mM
  Fluorescence enhancement (aggregate/native IgG): 13.5 fold
[1]; Ascoric Acid, 1 mM
  Fluorescence enhancement (aggregate/native IgG): 13.9 fold
[1]
  Fluorescence enhancement (aggregate/native IgG), Average: 19.3 fold
[1]; Calcium Chloride, 10 mM
  Fluorescence enhancement (aggregate/native IgG): 9.7 fold
[1]; Calcium Chloride, 50 mM
  Fluorescence enhancement (aggregate/native IgG): 9.6 fold
[1]; Calcium Chloride, 200 mM
  Fluorescence enhancement (aggregate/native IgG): 6.7 fold
[1]; DTT, 1 mM
  Fluorescence enhancement (aggregate/native IgG): 13.2 fold
[1]; Glycine, 0.5%
  Fluorescence enhancement (aggregate/native IgG): 14.1 fold
[1]; Glycine, 2%
  Fluorescence enhancement (aggregate/native IgG): 15.1 fold
[1]; Lactose, 100 mM
  Fluorescence enhancement (aggregate/native IgG): 23.0 fold
[1]; Lactose, 300 mM
  Fluorescence enhancement (aggregate/native IgG): 38.9 fold
[1]; Mannitol, 100 mM
  Fluorescence enhancement (aggregate/native IgG): 16.7 fold
[1]; Mannitol, 300 mM
  Fluorescence enhancement (aggregate/native IgG): 15.2 fold
[1]; Mannitol, 600 mM
  Fluorescence enhancement (aggregate/native IgG): 20.9 fold
[1]; Sodium Chloride, 10 mM
  Fluorescence enhancement (aggregate/native IgG): 14.0 fold
[1]; Sodium Chloride, 100 mM
  Fluorescence enhancement (aggregate/native IgG): 13.6 fold
[1]; Sodium Chloride, 1000 mM
  Fluorescence enhancement (aggregate/native IgG): 11.7 fold
[1]; Sorbitol, 100 mM
  Fluorescence enhancement (aggregate/native IgG): 16.4 fold
[1]; Sorbitol, 300 mM
  Fluorescence enhancement (aggregate/native IgG): 21.0 fold
[1]; Sorbitol, 600 mM
  Fluorescence enhancement (aggregate/native IgG): 25.4 fold
[1]; Trehalose, 100 mM
  Fluorescence enhancement (aggregate/native IgG): 17.8 fold
[1]; Trehalose, 300 mM
  Fluorescence enhancement (aggregate/native IgG): 32.1 fold
[1]; Trehalose, 600 mM
  Fluorescence enhancement (aggregate/native IgG): 30.1 fold
[1]; Tween 20, 0.01%
  Fluorescence enhancement (aggregate/native IgG): 70.8 fold
[1]; Tween 20, 0.2%
  Fluorescence enhancement (aggregate/native IgG): 26.7 fold
[1]; X100, 0.01%
  Fluorescence enhancement (aggregate/native IgG): 19.2 fold
[1]; X100, 0.2%
  Fluorescence enhancement (aggregate/native IgG): 7.3 fold
[1]; X100, 1%
  Fluorescence enhancement (aggregate/native IgG): 2.9 fold
β-lactoglobulin (BLG)
  Detection of BLG thermal shift (melting) peak: able to detect BLG thermal shift peaks
[2]
  Dye freely dissolved in buffer: Emission wavelength: 613 nm
  Dye freely dissolved in buffer: Excitation wavelength: 485 nm
[3]
  In the presence of aggregate: Emission wavelength: 607 nm
  In the presence of aggregate: Excitation wavelength: 516 nm

## Cc1c[n+](CCCCCCCCCC[n+]2ccc(/C=C/c3ccc(N(C)C)cc3)c(C)c2)ccc1/C=C/c1ccc(N(C)C)cc1 [TOL3]
[1]; Ammonium Sulfate, 10 mM
  Fluorescence enhancement (aggregate/native IgG): 15.6 fold
[1]; Ammonium Sulfate, 100 mM
  Fluorescence enhancement (aggregate/native IgG): 13.4 fold
[1]; Ammonium Sulfate, 300 mM
  Fluorescence enhancement (aggregate/native IgG): 16.9 fold
[1]; Arginine, 200 mM
  Fluorescence enhancement (aggregate/native IgG): 18.6 fold
[1]; Arginine, 500 mM
  Fluorescence enhancement (aggregate/native IgG): 17.6 fold
[1]; Ascoric Acid, 1 mM
  Fluorescence enhancement (aggregate/native IgG): 15.4 fold
[1]
  Fluorescence enhancement (aggregate/native IgG), Average: 17.6 fold
[1]; Calcium Chloride, 10 mM
  Fluorescence enhancement (aggregate/native IgG): 14.9 fold
[1]; Calcium Chloride, 50 mM
  Fluorescence enhancement (aggregate/native IgG): 13.9 fold
[1]; Calcium Chloride, 200 mM
  Fluorescence enhancement (aggregate/native IgG): 14.8 fold
[1]; DTT, 1 mM
  Fluorescence enhancement (aggregate/native IgG): 13.8 fold
[1]; Glycine, 0.5%
  Fluorescence enhancement (aggregate/native IgG): 16.3 fold
[1]; Glycine, 2%
  Fluorescence enhancement (aggregate/native IgG): 15.5 fold
[1]; Lactose, 100 mM
  Fluorescence enhancement (aggregate/native IgG): 19.9 fold
[1]; Lactose, 300 mM
  Fluorescence enhancement (aggregate/native IgG): 34.6 fold
[1]; Mannitol, 100 mM
  Fluorescence enhancement (aggregate/native IgG): 17.5 fold
[1]; Mannitol, 300 mM
  Fluorescence enhancement (aggregate/native IgG): 25.2 fold
[1]; Mannitol, 600 mM
  Fluorescence enhancement (aggregate/native IgG): 27.5 fold
[1]; Sodium Chloride, 10 mM
  Fluorescence enhancement (aggregate/native IgG): 16.0 fold
[1]; Sodium Chloride, 100 mM
  Fluorescence enhancement (aggregate/native IgG): 16.2 fold
[1]; Sodium Chloride, 1000 mM
  Fluorescence enhancement (aggregate/native IgG): 17.4 fold
[1]; Sorbitol, 100 mM
  Fluorescence enhancement (aggregate/native IgG): 20.0 fold
[1]; Sorbitol, 300 mM
  Fluorescence enhancement (aggregate/native IgG): 19.2 fold
[1]; Sorbitol, 600 mM
  Fluorescence enhancement (aggregate/native IgG): 29.3 fold
[1]; Trehalose, 100 mM
  Fluorescence enhancement (aggregate/native IgG): 18.9 fold
[1]; Trehalose, 300 mM
  Fluorescence enhancement (aggregate/native IgG): 20.1 fold
[1]; Trehalose, 600 mM
  Fluorescence enhancement (aggregate/native IgG): 30.4 fold
[1]; Tween 20, 0.01%
  Fluorescence enhancement (aggregate/native IgG): 8.5 fold
[1]; Tween 20, 0.2%
  Fluorescence enhancement (aggregate/native IgG): 3.4 fold
[1]; X100, 0.01%
  Fluorescence enhancement (aggregate/native IgG): 6.2 fold
[1]; X100, 0.2%
  Fluorescence enhancement (aggregate/native IgG): 3.4 fold
[1]; X100, 1%
  Fluorescence enhancement (aggregate/native IgG): 1.9 fold
β-lactoglobulin (BLG)
  Detection of BLG thermal shift (melting) peak: able to detect BLG thermal shift peaks
Rabbit-anti-goat IgG [4]; aggregated IgG 0.033 mg/mL
  Fluorescence enhancement with IgG aggregates relative to controls without IgG: significant fluorescence enhancement
Rabbit-anti-goat IgG [4]; monomeric IgG 0.033 mg/mL
  Fluorescence enhancement with unfolded IgG monomer relative to controls without IgG: insignificant fluorescence enhancement
[2]
  Dye freely dissolved in buffer: Emission wavelength: 611 nm
  Dye freely dissolved in buffer: Excitation wavelength: 471 nm
[3]
  In the presence of aggregate: Emission wavelength: 603 nm
  In the presence of aggregate: Excitation wavelength: 511 nm

## NC(N)=O [urea]
Rabbit-anti-goat IgG [5]
  IgG unfolded: approximately 60%

## CC(=O)N[C@H]1[C@H](O[C@H]2[C@H](O)[C@@H](NC(C)=O)C(O)O[C@@H]2CO)O[C@H](CO)[C@@H](O[C@@H]2O[C@H](CO)[C@@H](O)[C@H](O)[C@H]2NC(C)=O)[C@@H]1O (stereo partly drawn) [Chitotriose, N,N′,N″-triacetyl-chitotriose]
Hen Egg White Lysozyme
  Effect on Lysozyme aggregation: inhibits Lysozyme aggregation
